# Measurements as given in ChEMBL document CHEMBL1137925, “SAR development of a selective 5-HT1D antagonist/serotonin reuptake inhibitor lead using rapid parallel synthesis” (Bioorg Med Chem Lett, 2004).
# Columns and labels:
# [1] = target: T1, Adrenergic receptor alpha-1 (Rattus norvegicus, UniProt P15823+P23944+P43140); assay: Binding affinity determined against alpha-1 adrenergic receptor in rat cortex membranes using [3H]prazosin as radioligand; type: cell membranes
# T1 sequence (P15823 whole entry): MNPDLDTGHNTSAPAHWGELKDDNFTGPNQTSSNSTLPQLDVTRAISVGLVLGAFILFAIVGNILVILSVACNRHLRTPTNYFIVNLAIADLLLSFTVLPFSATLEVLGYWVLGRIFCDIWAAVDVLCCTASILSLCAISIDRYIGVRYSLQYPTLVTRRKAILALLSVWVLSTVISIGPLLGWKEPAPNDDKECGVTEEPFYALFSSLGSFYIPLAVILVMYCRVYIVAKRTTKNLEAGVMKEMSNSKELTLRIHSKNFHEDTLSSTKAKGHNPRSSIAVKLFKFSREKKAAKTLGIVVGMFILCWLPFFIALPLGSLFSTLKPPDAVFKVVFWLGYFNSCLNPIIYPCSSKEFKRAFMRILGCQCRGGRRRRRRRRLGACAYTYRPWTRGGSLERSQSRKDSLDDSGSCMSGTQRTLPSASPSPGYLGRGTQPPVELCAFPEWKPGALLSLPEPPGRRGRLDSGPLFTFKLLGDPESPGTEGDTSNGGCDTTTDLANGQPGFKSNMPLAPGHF
# T1 sequence (P23944 whole entry): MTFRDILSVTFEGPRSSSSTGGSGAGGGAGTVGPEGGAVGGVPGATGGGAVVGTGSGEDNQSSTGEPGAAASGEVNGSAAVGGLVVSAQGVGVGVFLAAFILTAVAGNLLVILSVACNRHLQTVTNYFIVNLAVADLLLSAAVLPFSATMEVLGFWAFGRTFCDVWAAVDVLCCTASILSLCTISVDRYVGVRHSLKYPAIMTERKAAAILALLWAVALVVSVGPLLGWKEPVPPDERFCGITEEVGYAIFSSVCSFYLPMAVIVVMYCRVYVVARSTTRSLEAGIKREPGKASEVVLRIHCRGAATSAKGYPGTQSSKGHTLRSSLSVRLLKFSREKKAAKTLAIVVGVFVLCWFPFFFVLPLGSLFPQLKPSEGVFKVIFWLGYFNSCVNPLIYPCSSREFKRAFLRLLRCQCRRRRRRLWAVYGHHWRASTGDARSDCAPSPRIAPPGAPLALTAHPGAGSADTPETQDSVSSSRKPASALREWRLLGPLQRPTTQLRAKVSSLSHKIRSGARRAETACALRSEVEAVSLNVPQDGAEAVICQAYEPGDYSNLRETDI
# T1 sequence (P43140 whole entry): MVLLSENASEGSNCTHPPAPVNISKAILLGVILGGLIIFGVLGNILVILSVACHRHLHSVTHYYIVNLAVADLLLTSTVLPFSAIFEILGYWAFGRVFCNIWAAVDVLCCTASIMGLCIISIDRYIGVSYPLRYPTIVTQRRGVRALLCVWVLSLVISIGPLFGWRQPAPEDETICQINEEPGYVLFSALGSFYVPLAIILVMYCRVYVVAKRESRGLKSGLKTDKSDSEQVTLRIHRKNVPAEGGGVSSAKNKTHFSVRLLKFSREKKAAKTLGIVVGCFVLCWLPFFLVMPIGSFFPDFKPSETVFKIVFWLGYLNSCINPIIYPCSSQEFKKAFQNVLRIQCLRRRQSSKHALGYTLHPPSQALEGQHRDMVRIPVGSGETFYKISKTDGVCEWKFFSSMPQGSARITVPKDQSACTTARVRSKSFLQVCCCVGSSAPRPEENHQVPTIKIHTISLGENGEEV
# [2] = target: 5-hydroxytryptamine receptor 1B (Homo sapiens, UniProt P28222); assay: Binding affinity towards human 5-hydroxytryptamine 1B receptor in L-M(tk-) cells using [3H]GR-125743 as radioligand; type: cell-based
# 5-hydroxytryptamine receptor 1B, sequence (P28222 whole entry): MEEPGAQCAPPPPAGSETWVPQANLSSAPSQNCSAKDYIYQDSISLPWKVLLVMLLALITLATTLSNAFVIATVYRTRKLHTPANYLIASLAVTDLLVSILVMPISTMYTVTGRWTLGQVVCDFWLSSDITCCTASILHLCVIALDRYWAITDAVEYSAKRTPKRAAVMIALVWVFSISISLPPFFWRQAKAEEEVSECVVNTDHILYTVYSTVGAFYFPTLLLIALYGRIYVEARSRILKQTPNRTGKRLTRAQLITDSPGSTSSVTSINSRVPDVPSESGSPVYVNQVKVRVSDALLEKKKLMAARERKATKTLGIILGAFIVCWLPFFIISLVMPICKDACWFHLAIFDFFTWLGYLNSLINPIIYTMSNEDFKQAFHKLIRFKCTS
# [3] = target: 5-hydroxytryptamine receptor 1D (Homo sapiens, UniProt P28221); assay: Binding affinity towards human 5-hydroxytryptamine 1D receptor in L-M(tk-) cells using [3H]GR-125743 as radioligand; type: cell-based
# 5-hydroxytryptamine receptor 1D, sequence (P28221 whole entry): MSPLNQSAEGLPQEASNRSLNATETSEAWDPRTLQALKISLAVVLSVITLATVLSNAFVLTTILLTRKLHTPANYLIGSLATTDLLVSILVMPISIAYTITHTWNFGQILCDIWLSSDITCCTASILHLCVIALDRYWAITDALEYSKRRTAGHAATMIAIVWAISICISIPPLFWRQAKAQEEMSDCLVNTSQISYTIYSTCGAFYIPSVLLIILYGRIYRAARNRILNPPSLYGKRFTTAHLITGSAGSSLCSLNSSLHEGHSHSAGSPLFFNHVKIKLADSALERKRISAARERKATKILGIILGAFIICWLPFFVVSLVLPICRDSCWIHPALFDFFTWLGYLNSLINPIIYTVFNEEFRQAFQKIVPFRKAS
# D(2) dopamine receptor = D(2) dopamine receptor (Rattus norvegicus, UniProt P61169); assay: Binding affinity determined against dopamine receptor D2 in rat caudate membranes using [3H]- raclopride as radioligand; type: cell membranes
# D(2) dopamine receptor, sequence (P61169 whole entry): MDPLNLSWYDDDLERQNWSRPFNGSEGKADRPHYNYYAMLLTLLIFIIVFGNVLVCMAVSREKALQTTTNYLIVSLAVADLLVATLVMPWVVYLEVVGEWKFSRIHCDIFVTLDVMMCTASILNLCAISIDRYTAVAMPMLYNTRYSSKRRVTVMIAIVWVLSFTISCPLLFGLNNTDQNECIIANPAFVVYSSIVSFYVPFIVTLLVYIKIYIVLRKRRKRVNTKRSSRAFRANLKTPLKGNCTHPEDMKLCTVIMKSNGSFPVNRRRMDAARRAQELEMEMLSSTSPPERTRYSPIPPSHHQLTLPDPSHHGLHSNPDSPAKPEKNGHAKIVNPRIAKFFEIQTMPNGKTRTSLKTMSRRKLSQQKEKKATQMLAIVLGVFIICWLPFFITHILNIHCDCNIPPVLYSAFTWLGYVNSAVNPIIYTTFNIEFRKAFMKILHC
# [4] = target: Sodium-dependent serotonin transporter (Rattus norvegicus, UniProt P31652); assay: In vitro binding affinity towards serotonin transporter using [3H]citalopram as radioligand in rat cerebral cortex membranes; type: cell membranes, Membrane
# Sodium-dependent serotonin transporter, sequence (P31652 whole entry): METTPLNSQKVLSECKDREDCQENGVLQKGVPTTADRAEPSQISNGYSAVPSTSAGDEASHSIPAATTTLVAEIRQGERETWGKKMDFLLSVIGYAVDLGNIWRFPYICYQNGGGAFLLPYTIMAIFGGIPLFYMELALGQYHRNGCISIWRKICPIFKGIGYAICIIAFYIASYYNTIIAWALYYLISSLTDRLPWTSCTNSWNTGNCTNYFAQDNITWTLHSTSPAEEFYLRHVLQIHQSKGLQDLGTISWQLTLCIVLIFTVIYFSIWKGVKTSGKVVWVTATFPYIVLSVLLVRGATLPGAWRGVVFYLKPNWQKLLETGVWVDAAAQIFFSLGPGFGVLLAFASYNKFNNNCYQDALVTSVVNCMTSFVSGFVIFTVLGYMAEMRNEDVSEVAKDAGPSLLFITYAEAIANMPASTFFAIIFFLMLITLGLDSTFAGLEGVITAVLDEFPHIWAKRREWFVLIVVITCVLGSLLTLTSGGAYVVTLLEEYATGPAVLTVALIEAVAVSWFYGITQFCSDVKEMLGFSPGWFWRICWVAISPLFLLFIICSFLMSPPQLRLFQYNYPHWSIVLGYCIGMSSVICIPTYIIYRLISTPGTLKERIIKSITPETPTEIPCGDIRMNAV
# Cavia porcellus = species on record: Cavia porcellus; assay: Ability at 30 uM to potentiate potassium-stimulated [3H]5-HT release from preloaded guinea pig cortical slices; type: functional
Compound,Ki [1] [nM],Ki [2] [nM],Ki [3] [nM],Ki (D(2) dopamine receptor) [nM],Ki [4] [nM],Release (Cavia porcellus) [%]
NC(=O)c1ccc2c(c1)CCOC2CCN1CC=C(c2noc3cc(F)ccc23)CC1 (configuration not stated),3,155,63,37,8,–
NC(=O)c1ccc2c(c1)CCOC2CCN1CC=C(c2c[nH]c3ccc(F)cc23)CC1 (configuration not stated),101,> 1000,130,2.1,1.6,–
NC(=O)c1ccc2c(c1)CCOC2CCN1CC=C(c2cccc3ccc(F)cc23)CC1 (configuration not stated),202,210,26,87,13,–
NC(=O)c1ccc2c(c1)CCOC2CCN1CC=C(c2c[nH]c3cc(Cl)ccc23)CC1 (configuration not stated),–,> 1000,145,–,0.38,–
NC(=O)c1ccc2c(c1)CCOC2CCN1CC=C(c2csc3cc(F)ccc23)CC1 (configuration not stated),17,186,20,3.8,1,–
N#Cc1cccc2c(C3=CCN(CCC4OCCc5cc(C(N)=O)ccc54)CC3)c[nH]c12 (configuration not stated),134,> 1000,130,15,2.1,–
NC(=O)c1ccc2c(c1)CCOC2CCN1CC=C(c2c[nH]c3c(Cl)c(Cl)ccc23)CC1 (configuration not stated),–,> 1000,165,–,0.28,–
NC(=O)c1ccc2c(c1)CCO[C@@H]2CCN1CC=C(c2c[nH]c3c(F)cccc23)CC1,1.7,199,25,48,0.2,–
NC(=O)c1ccc2c(c1)CCOC2CCN1CCC(c2nsc3cc(F)ccc23)CC1 (configuration not stated),–,200,40,–,53,–
NC(=O)c1ccc2c(c1)CCOC2CCN1CCC(c2c[nH]c3cc(F)ccc23)C1 (configuration not stated),1.2,96,40,28,2.1,–
NC(=O)c1ccc2c(c1)CCOC2CCN1CC=C(c2c[nH]c3c(F)cccc23)CC1 (configuration not stated),26,> 1000,26,3.8,0.76,–
Cn1cc(C2=CCN(CCC3OCCc4cc(C(N)=O)ccc43)CC2)c2ccc(F)cc21 (configuration not stated),17,> 1000,65,73,0.98,–
NC(=O)c1ccc2c(c1)CCOC2CCN1CC=C(c2ccc(F)c3ccoc23)CC1 (configuration not stated),31,–,27,52,1.9,–
NC(=O)c1ccc2c(c1)CCO[C@H]2CCN1CC=C(c2c[nH]c3c(F)cccc23)CC1,2.8,387,15,7,0.3,–
NC(=O)c1ccc2c(c1)CCOC2CCN1CCC(c2cccc3ccccc23)CC1 (configuration not stated),30,73,14,50,15,52
NC(=O)c1ccc2c(c1)CCOC2CCN1CC=C(c2c[nH]c3c(F)c(F)ccc23)CC1 (configuration not stated),16,> 1000,57,6.7,0.3,–
NC(=O)c1ccc2c(c1)CCOC2CCN1CC=C(c2ccc3cc(F)ccc3c2)CC1 (configuration not stated),36,> 1000,71,491,2.2,–
COc1ccc2[nH]cc(C3=CCN(CCC4OCCc5cc(C(N)=O)ccc54)CC3)c2c1 (configuration not stated),75,316,31,26,3.5,42
NC(=O)c1ccc2c(c1)CCOC2CCN1CC=C(c2c[nH]c3cc(F)ccc23)CC1 (configuration not stated),16,281,56,4.7,0.11,36
Cn1nc(C2=CCN(CCC3OCCc4cc(C(N)=O)ccc43)CC2)c2ccc(F)cc21 (configuration not stated),16,> 1000,51,183,0.54,–
NC(=O)c1ccc2c(c1)CCOC2CCN1CCN(c2c[nH]c3cc(F)ccc23)CC1 (configuration not stated),5.8,310,74,7.1,19,–
C[C@H]1CC(c2c[nH]c3cc(F)ccc23)CCN1CCC1OCCc2cc(C(N)=O)ccc21 (some centres not stated),20,> 1000,28,86,0.78,–
NC(=O)c1ccc2c(c1)CCOC2CCN1CC=C(c2c[nH]c3cc(C(F)(F)F)ccc23)CC1 (configuration not stated),190,> 1000,122,8.6,0.99,–
NC(=O)c1ccc2c(c1)CCOC2CCN1CC=C(c2coc3cc(F)ccc23)CC1 (configuration not stated),2.8,155,28,21,0.29,–
NC(=O)c1ccc2c(c1)CCOC2CCN1CC=C(c2[nH]nc3cc(F)ccc23)CC1 (configuration not stated),2.1,210,24,33,0.5,–
NC(=O)c1ccc2c(c1)CCOC2CCN1CC=C(c2cccc3ccccc23)CC1 (configuration not stated),224,153,5.4,167,3.2,11
NC(=O)c1ccc2c(c1)CCOC2CCN1CCC(c2c[nH]c3cc(F)ccc23)CC1 (configuration not stated),12,131,8.4,19,2,–
